“And” between values parts separate entries of the source, which are not always exact repeats. Equal values may be shown once. “Also recorded” adds a separate entry of the source.
Legend:
recombinant human CES1 = target: T1, recombinant human CES1 (Homo sapiens, UniProt P23141); experiment: Deacetylation of 3/15ADON by recombinant CES1; format: in vitro ADME; parameters: purchased R&D Systems; conditions: 5 μg/mL CES1, up to 24 h, data not shown
T1 sequence (P23141 18-567): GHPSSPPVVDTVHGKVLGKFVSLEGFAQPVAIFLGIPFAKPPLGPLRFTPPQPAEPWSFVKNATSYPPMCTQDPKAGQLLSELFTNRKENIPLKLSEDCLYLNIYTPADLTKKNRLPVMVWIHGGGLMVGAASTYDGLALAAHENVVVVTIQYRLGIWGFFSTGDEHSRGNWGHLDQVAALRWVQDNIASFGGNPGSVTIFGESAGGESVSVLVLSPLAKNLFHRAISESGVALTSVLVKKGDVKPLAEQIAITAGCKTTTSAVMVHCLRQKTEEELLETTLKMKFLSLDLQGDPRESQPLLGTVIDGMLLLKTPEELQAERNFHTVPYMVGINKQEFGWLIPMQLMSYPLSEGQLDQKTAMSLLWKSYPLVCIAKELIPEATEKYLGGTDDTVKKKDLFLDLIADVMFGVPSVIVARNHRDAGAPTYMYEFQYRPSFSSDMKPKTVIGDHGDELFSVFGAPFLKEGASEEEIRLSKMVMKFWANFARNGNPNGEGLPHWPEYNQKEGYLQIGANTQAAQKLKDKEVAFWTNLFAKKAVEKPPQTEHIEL
Experimental: (§1) Stock solutions of DON, 3ADON and 15ADON at 2 mg/mL were prepared in absolute ethanol and stored at −20 °C. For deacetylation assay, 3- or 15ADON were incubated with cells, explants, bacteria or digestive enzymes after being diluted in PBS^++ at a final concentration of 100 μM. PBS^++ solution containing only ethanol (at 1.5% final concentration) or DON (at 100 μM) were used in parallel as negative and positive control, respectively. For cells and explants, deacetylation assay take place in 6-well plates, wells being filled with 2 mL of PBS^++ containing either ethanol, DON, 3- or 15ADON. For fecal bacteria and digestive enzyme assay, deacetylation assay was conducted in 2 mL Eppendorf tubes filled with 1.5 mL of PBS^++ containing either ethanol, DON, 3- or 15ADON. In vitro intestinal digestion by luminal enzymes was performed using porcine enzymes from Sigma-Aldrich and physiological conditions. […] In all cases, aliquots of the reaction solution were collected immediately (i.e., “time zero” sample) or after the indicated time period at 37 °C and analyzed by HPLC. […]
(§2) Deacetylation was monitoring both in term of disappearance of 3- or 15ADON and formation of DON. […] Quantification was based on calibration with the corresponding standard using Millinium Software (Waters, Saint Quentin Falavier, France).

[1] = Deacetylation of 3/15ADON by kidney S9 fraction; format: in vitro ADME, human; conditions: for Disappearance of 3/15ADON, specific activity: S9 kidney 0.1 mg/mL, 37 °C, substrate 100 μM; for Activity of renal S9 fraction on 3/15ADON: in words
Experimental: (§3) Stock solutions of DON, 3ADON and 15ADON at 2 mg/mL were prepared in absolute ethanol and stored at −20 °C. For deacetylation assay, 3- or 15ADON were incubated with cells, explants, bacteria or digestive enzymes after being diluted in PBS^++ at a final concentration of 100 μM. PBS^++ solution containing only ethanol (at 1.5% final concentration) or DON (at 100 μM) were used in parallel as negative and positive control, respectively. For cells and explants, deacetylation assay take place in 6-well plates, wells being filled with 2 mL of PBS^++ containing either ethanol, DON, 3- or 15ADON. For fecal bacteria and digestive enzyme assay, deacetylation assay was conducted in 2 mL Eppendorf tubes filled with 1.5 mL of PBS^++ containing either ethanol, DON, 3- or 15ADON. In vitro intestinal digestion by luminal enzymes was performed using porcine enzymes from Sigma-Aldrich and physiological conditions. Briefly, 3- or 15ADON were incubated with pepsin (at 1.6 mg/mL corresponding to 900 U/mL), trypsin (at 0.35 mg/mL corresponding to 6000 U/mL), pancreatic lipase (at 0.75 mg/mL corresponding to 18 U/mL) or pancreatin (at 1.23 mg/mL, lipase activity >10 U/mL, protease activity >100 U/mL, amylase activity >100 U/mL). Except for pepsin for which the digestion was conducted in HCl solution at 10 mM (pH 2.3), in vitro digestion was performed in PBS^++ (pH 7.4). Finally, deacetylation assay was also performed with commercial pooled S9 fractions from human liver, small intestine and kidneys as well as with pure recombinant human CES1 and CES2. S9 fractions and CES1/2 were used at 0.1 mg/mL and 5 μg/mL (corresponding to CES activity >20 U/mL), respectively. In all cases, aliquots of the reaction solution were collected immediately (i.e., “time zero” sample) or after the indicated time period at 37 °C and analyzed by HPLC. […] In all cases, the experiments were conducted in triplicate (n = 3).
Deacetylation was monitoring both in term of disappearance of 3- or 15ADON and formation of DON. Measurement of DON, 3ADON and 15ADON concentrations was performed by reversed-phase HPLC using Waters Alliance System equipped with a Waters 2690 XE separation module and a Waters 996 photodiode array detector (Waters, Saint Quentin Falavier, France). The separation was achieved by mean of a LiChroCart column (125 mm × 4 mm) packed with 5 μm RP-18 Purospher gel (Merck, Darmstadt, Germany) and equipped with a LiChroCart precolumn (4 mm × 4 mm) packed with the same material (Merck). The precolumn and column were placed in room temperature. […] Quantification was based on calibration with the corresponding standard using Millinium Software (Waters, Saint Quentin Falavier, France).

[2] = test system: pepsin and pancreatic enzymes (pancreatin, trypsin, lipase); experiment: Deacetylation of 3/15ADON by luminal digestive enzymes (taken together); format: in vitro ADME, porcine; conditions: percentage of sum of specific activities (Figure 8)
Experimental: as §1, §2

[3] = parameters: method as in PMID 26343882; conditions: pigs, oral and intravenous (i.v) exposures; cited from earlier work
small intestinal explant = experiment: Deacetylation of 3/15ADON by human small intestinal explants; format: in vitro ADME; conditions: for Contribution to total deacetylation activity: Small intestine: percentage of sum of specific activities (Figure 8); for Disappearance of 3/15ADON, specific activity: small intestinal explant, 37 °C, substrate 100 μM; for % of deacetylation: small intestinal explants, 6 h incubation, 100 μM
From the text: Human tissue samples were obtained from patients undergoing surgery at the Hospital Nord of Marseille, unit of general and gastrointestinal surgery according to a collaborative “clinical transfer” project. The procedures were approved by the French ethic committee (CODECOH n° DC-2011-1319). Patients were from both genders (six men, three women), 31–74 years of age, all of European origin. All patients agree to use their tissues for research purposes. Samples were taken from macroscopically unaffected area as identified by the surgeon for intestinal samples or the pathologist for liver resections. Diagnoses leading to surgery were carcinoma for intestine or liver. After resection, the specimens were placed in ice-cold non-sterile Krebs solution implemented and transferred to the school of medicine on the same campus within 5 min, composition of the Krebs solution being previously described. The tissues were rinsed several times and maintained in oxygenated Krebs during 1 h for recovery before final dissection. Intestinal and hepatic resections were extensively washed and maintained in ice-cold culture media containing 1% streptomycin/penicillin solution and 50 μg/mL gentamycin. Tissues were cleaned from vascular vessels and conjunctive tissue using forceps under binocular microscope. In case of intestinal resection, muscularis and plexus were removed and only epithelial layer was kept. Intestinal and hepatic explants (wet weight of 20–30 mg) were then isolated from the cleaned resections using surgical punch (diameter of […]). […] Finally, the explants were washed 3 times with PBS^++ and transferred into 6-well plates before being used for deacetylation assay.
as §3

Structure (SMILES) | Deacetylation activity of CES1 on 3/15ADON (recombinant human CES1) | Disappearance of 3/15ADON, specific activity [1] | Activity of renal S9 fraction on 3/15ADON [1] | Contribution to total deacetylation activity: Pancreatic enzymes [2] [%] | Transformation into DON in vivo [3] | Contribution to total deacetylation activity: Small intestine (small intestinal explant) [%] | Disappearance of 3/15ADON, specific activity (small intestinal explant) | % of deacetylation (small intestinal explant)
CC(=O)O[C@@H]1C[C@]2(C)[C@@]3(CO)[C@H](O)C(=O)C(C)=C[C@H]3O[C@H]1[C@@]21CO1 [3ADON, 3-acetyldeoxynivalenol] | failed at observing any deacetylation activity; also recorded: unable to cause the deacetylation | 33 pmol/min/mg and 33 ± 8.3 pmol/min/mg | minor activity, if any | 10 | complete transformation into DON | 26 | 338 pmol/min/mg and 338 ± 69 pmol/min/mg | 67.3% ± 13.8%
CC(=O)OC[C@]12[C@H](O)C(=O)C(C)=C[C@H]1O[C@@H]1[C@H](O)C[C@@]2(C)[C@]12CO2 [15ADON, 15-acetyldeoxynivalenol] | failed at observing any deacetylation activity; also recorded: unable to cause the deacetylation | 16 pmol/min/mg and 16 ± 5.8 pmol/min/mg | minor activity, if any | 26 | complete transformation into DON | 13 | 85 pmol/min/mg and 85 ± 65 pmol/min/mg | 17.2% ± 13.4%

Source: PMC4999848 (Toxins, 2016)
